Measurements reported in the OligoGym collection.
HELM strings list units from the 5' end as sugar, base in round brackets, then linkage (d deoxyribose, r ribose, m 2'-O-methyl, p phosphodiester). Strings are as the collection lists them; they lack the last nucleoside at the 3' end of the tested compound. [moe] = 2'-O-(2-methoxyethyl) (MOE); [sp] = phosphorothioate linkage; [m5C] = 5-methylcytosine

Target: UBE3A-ATS
Assay: mouse, dose not given
Conditions: ASO

Substance | 3 h FOB score
RNA1{[moe](G)[sp].[moe]([m5C])p.[moe](A)p.[moe](T)p.[moe](G)p.d(A)[sp].d(T)[sp].d(T)[sp].d([m5C])[sp].d(T)[sp].d(A)[sp].d(A)[sp].d([m5C])[sp].d([m5C])[sp].d(A)[sp].[moe](T)p.[moe](A)p.[moe](G)[sp].[moe](A)}$$$$ (last 3' nucleoside missing) | 1 score 0-7
RNA1{[moe](G)[sp].[moe](T)p.[moe](G)p.[moe]([m5C])p.[moe](A)[sp].d(T)[sp].d(A)[sp].d([m5C])[sp].d([m5C])[sp].d([m5C])[sp].d(A)[sp].d(G)[sp].d(G)[sp].[moe](G)p.[moe](T)p.[moe](A)[sp].[moe](G)}$$$$ (last 3' nucleoside missing) | 5.5 score 0-7
RNA1{[moe](G)[sp].[moe](A)p.[moe](G)p.[moe](T)p.[moe](A)p.d(T)[sp].d(A)[sp].d(T)[sp].d(T)[sp].d(A)[sp].d([m5C])[sp].d([m5C])[sp].d(T)[sp].d([m5C])[sp].d([m5C])[sp].[moe](A)p.[moe](G)p.[moe](G)[sp].[moe](T)}$$$$ (last 3' nucleoside missing) | 1 score 0-7
RNA1{[moe](T)[sp].[moe](T)p.[moe]([m5C])p.[moe](T)p.[moe](G)p.d(G)[sp].d(A)[sp].d(A)[sp].d(T)[sp].d([m5C])[sp].d(T)[sp].d(T)[sp].d(G)[sp].d(T)[sp].d(A)[sp].[moe](G)p.[moe](A)p.[moe](G)[sp].[moe](G)}$$$$ (last 3' nucleoside missing) | 3 score 0-7
RNA1{[moe](A)[sp].[moe](T)p.[moe](G)p.[moe](A)p.[moe]([m5C])p.d(A)[sp].d(T)[sp].d(A)[sp].d(A)[sp].d([m5C])[sp].d([m5C])[sp].d(A)[sp].d(T)[sp].d(A)[sp].d(T)[sp].[moe](A)p.[moe]([m5C])p.[moe](A)[sp].[moe](A)}$$$$ (last 3' nucleoside missing) | 0 score 0-7
RNA1{[moe](A)[sp].[moe](A)p.[moe](A)p.[moe](T)p.[moe]([m5C])p.d([m5C])[sp].d(A)[sp].d(T)[sp].d(T)[sp].d(T)[sp].d(G)[sp].d(T)[sp].d([m5C])[sp].d([m5C])[sp].d(A)[sp].[moe](G)p.[moe](T)p.[moe]([m5C])[sp].[moe](T)}$$$$ (last 3' nucleoside missing) | 4.2 score 0-7
RNA1{[moe](T)[sp].[moe]([m5C])p.[moe](A)p.[moe](T)[sp].d([m5C])[sp].d(T)[sp].d([m5C])[sp].d(G)[sp].d(G)[sp].d(G)[sp].d(T)[sp].d(A)[sp].[moe](T)p.[moe](A)p.[moe](T)p.[moe](A)[sp].[moe](A)}$$$$ (last 3' nucleoside missing) | 5.3 score 0-7
RNA1{[moe]([m5C])[sp].[moe](A)p.[moe](T)p.[moe](A)p.[moe]([m5C])p.[moe]([m5C])[sp].d([m5C])[sp].d(A)[sp].d(G)[sp].d(G)[sp].d(G)[sp].d(T)[sp].d(A)[sp].d(G)[sp].[moe](G)p.[moe](A)[sp].[moe](T)}$$$$ (last 3' nucleoside missing) | 2 score 0-7
RNA1{[moe](G)[sp].[moe](G)p.[moe](T)p.[moe]([m5C])p.[moe](A)[sp].d(T)[sp].d([m5C])[sp].d(T)[sp].d([m5C])[sp].d(G)[sp].d(G)[sp].d(G)[sp].d(T)[sp].[moe](A)p.[moe](T)p.[moe](A)[sp].[moe](T)}$$$$ (last 3' nucleoside missing) | 6 score 0-7
RNA1{[moe](G)[sp].[moe](T)p.[moe]([m5C])p.[moe](A)p.[moe](T)p.d([m5C])[sp].d(A)[sp].d([m5C])[sp].d([m5C])[sp].d(T)[sp].d([m5C])[sp].d(T)[sp].d([m5C])[sp].d(T)[sp].d(T)[sp].[moe]([m5C])p.[moe](A)p.[moe](G)[sp].[moe](G)}$$$$ (last 3' nucleoside missing) | 1 score 0-7
RNA1{[moe](T)[sp].[moe](T)p.[moe](A)p.[moe](G)p.[moe](G)p.d(T)[sp].d([m5C])[sp].d(A)[sp].d(A)[sp].d([m5C])[sp].d([m5C])[sp].d(A)[sp].d(A)[sp].d(T)[sp].d(T)[sp].[moe](T)p.[moe](G)p.[moe]([m5C])[sp].[moe](T)}$$$$ (last 3' nucleoside missing) | 0 score 0-7
RNA1{[moe](G)[sp].[moe]([m5C])p.[moe](T)p.[moe]([m5C])p.[moe](A)p.[moe](G)p.d(T)[sp].d(T)[sp].d(A)[sp].d(G)[sp].d(G)[sp].d(T)[sp].d(T)[sp].d(A)[sp].d(G)[sp].d(T)[sp].[moe](G)p.[moe]([m5C])[sp].[moe](A)}$$$$ (last 3' nucleoside missing) | 4 score 0-7
RNA1{[moe]([m5C])[sp].[moe]([m5C])p.[moe](A)p.[moe](G)p.[moe](G)p.d(T)[sp].d(G)[sp].d(T)[sp].d([m5C])[sp].d(T)[sp].d(T)[sp].d(A)[sp].d(T)[sp].d(A)[sp].d(T)[sp].[moe]([m5C])p.[moe](T)p.[moe](A)[sp].[moe](T)}$$$$ (last 3' nucleoside missing) | 1 score 0-7
RNA1{[moe](G)[sp].[moe]([m5C])p.[moe](A)p.[moe](A)p.[moe](A)p.d(T)[sp].d(A)[sp].d([m5C])[sp].d(A)[sp].d(A)[sp].d(T)[sp].d(G)[sp].d(G)[sp].d(T)[sp].d(A)[sp].[moe](A)p.[moe](T)p.[moe]([m5C])[sp].[moe](G)}$$$$ (last 3' nucleoside missing) | 4.2 score 0-7
RNA1{[moe](T)[sp].[moe](T)p.[moe](G)p.[moe](G)p.[moe](T)p.[moe]([m5C])p.d(A)[sp].d(T)[sp].d([m5C])[sp].d(T)[sp].d([m5C])[sp].d(G)[sp].d(G)[sp].d(G)[sp].d(T)[sp].d(A)[sp].[moe](T)p.[moe](A)[sp].[moe](T)}$$$$ (last 3' nucleoside missing) | 6.5 score 0-7
RNA1{[moe](G)[sp].[moe](T)p.[moe](T)p.[moe](T)p.[moe](A)p.d(G)[sp].d(G)[sp].d(T)[sp].d([m5C])[sp].d(A)[sp].d(A)[sp].d([m5C])[sp].d([m5C])[sp].d(A)[sp].d(A)[sp].[moe](T)p.[moe](T)p.[moe](T)[sp].[moe](G)}$$$$ (last 3' nucleoside missing) | 1 score 0-7
RNA1{[moe](A)[sp].[moe](A)p.[moe]([m5C])p.[moe](G)p.d([m5C])[sp].d(A)[sp].d(A)[sp].d(T)[sp].d(G)[sp].d(T)[sp].d(A)[sp].d(T)[sp].d([m5C])[sp].d(A)[sp].[moe](G)p.[moe](G)p.[moe]([m5C])p.[moe](A)[sp].[moe](A)}$$$$ (last 3' nucleoside missing) | 2 score 0-7
RNA1{[moe](T)[sp].[moe](G)p.[moe]([m5C])p.[moe](T)p.[moe]([m5C])[sp].d(A)[sp].d(G)[sp].d(T)[sp].d(T)[sp].d(A)[sp].d(G)[sp].d(G)[sp].d(T)[sp].[moe](T)p.[moe](A)p.[moe](G)[sp].[moe](T)}$$$$ (last 3' nucleoside missing) | 6.3 score 0-7
RNA1{[moe]([m5C])[sp].[moe](T)p.[moe](T)p.[moe](T)p.[moe]([m5C])p.d(A)[sp].d(T)[sp].d([m5C])[sp].d(A)[sp].d(G)[sp].d(T)[sp].d(T)[sp].d(A)[sp].d(G)[sp].d(T)[sp].[moe]([m5C])p.[moe](A)p.[moe](G)[sp].[moe](G)}$$$$ (last 3' nucleoside missing) | 3.5 score 0-7
RNA1{[moe](G)[sp].[moe](A)p.[moe](T)p.[moe](T)p.[moe](A)p.d(T)[sp].d([m5C])[sp].d(T)[sp].d([m5C])[sp].d(A)[sp].d(G)[sp].d(A)[sp].d([m5C])[sp].d(A)[sp].d(T)[sp].[moe](G)p.[moe]([m5C])p.[moe]([m5C])[sp].[moe](A)}$$$$ (last 3' nucleoside missing) | 3.2 score 0-7
RNA1{[moe](G)[sp].[moe]([m5C])p.[moe](T)p.[moe](T)p.[moe](T)p.d(A)[sp].d(T)[sp].d(A)[sp].d([m5C])[sp].d(T)[sp].d(T)[sp].d(T)[sp].d(A)[sp].d([m5C])[sp].d([m5C])[sp].[moe]([m5C])p.[moe](A)p.[moe](A)[sp].[moe]([m5C])}$$$$ (last 3' nucleoside missing) | 1 score 0-7
RNA1{[moe](T)[sp].[moe](T)p.[moe](A)p.[moe]([m5C])p.[moe](T)p.d([m5C])[sp].d([m5C])[sp].d(T)[sp].d([m5C])[sp].d(T)[sp].d(G)[sp].d(G)[sp].d(T)[sp].d(G)[sp].d(T)[sp].[moe](G)p.[moe]([m5C])p.[moe](T)[sp].[moe](G)}$$$$ (last 3' nucleoside missing) | 3.5 score 0-7
RNA1{[moe](G)[sp].[moe]([m5C])p.[moe]([m5C])p.[moe](A)p.[moe](G)p.d(G)[sp].d(T)[sp].d(G)[sp].d(T)[sp].d([m5C])[sp].d(T)[sp].d(T)[sp].d(A)[sp].d(T)[sp].d(A)[sp].[moe](T)p.[moe]([m5C])p.[moe](T)[sp].[moe](A)}$$$$ (last 3' nucleoside missing) | 0 score 0-7
RNA1{[moe](G)[sp].[moe](T)p.[moe](T)p.[moe](A)p.[moe](G)p.d(G)[sp].d(T)[sp].d(T)[sp].d(A)[sp].d(G)[sp].d(T)[sp].d(G)[sp].d([m5C])[sp].d(A)[sp].d([m5C])[sp].[moe](A)p.[moe](G)p.[moe](A)[sp].[moe](T)}$$$$ (last 3' nucleoside missing) | 6 score 0-7
RNA1{[moe]([m5C])[sp].[moe](A)p.[moe](T)p.[moe](T)p.[moe](G)p.d(G)[sp].d([m5C])[sp].d(T)[sp].d(T)[sp].d([m5C])[sp].d(A)[sp].d(T)[sp].d(A)[sp].d(T)[sp].d(T)[sp].[moe](T)p.[moe]([m5C])p.[moe](T)[sp].[moe]([m5C])}$$$$ (last 3' nucleoside missing) | 0 score 0-7
RNA1{[moe](G)[sp].[moe](T)p.[moe](G)p.[moe](T)p.[moe](G)p.d([m5C])[sp].d([m5C])[sp].d(A)[sp].d(T)[sp].d(A)[sp].d(G)[sp].d(G)[sp].d(T)[sp].d(T)[sp].d(T)[sp].[moe]([m5C])p.[moe](A)p.[moe](G)[sp].[moe](G)}$$$$ (last 3' nucleoside missing) | 2.8 score 0-7
RNA1{[moe](T)[sp].[moe](G)p.[moe](A)p.[moe](T)p.[moe](A)p.d(G)[sp].d(A)[sp].d(T)[sp].d(A)[sp].d([m5C])[sp].d(T)[sp].d(T)[sp].d(G)[sp].d(T)[sp].d(A)[sp].[moe](T)p.[moe](T)p.[moe](A)[sp].[moe](G)}$$$$ (last 3' nucleoside missing) | 3.8 score 0-7
